{"source": "ChEMBL document CHEMBL1201862", "about": "“PubChem BioAssay data set” (2004)", "experiment_in_all_cases": "DTP human tumour cell line panel, 48 h", "key": {"[1]": {"test_system": "SK-MEL-5"}, "[2]": {"test_system": "M14"}, "[3]": {"test_system": "OVCAR-4"}, "[4]": {"test_system": "SF-295"}, "[5]": {"test_system": "KM12"}, "[6]": {"test_system": "DU-145"}, "[7]": {"test_system": "EKVX"}, "[8]": {"test_system": "A549"}, "[9]": {"test_system": "SR"}, "[10]": {"test_system": "COLO 205"}, "[11]": {"test_system": "HCC 2998"}, "[12]": {"test_system": "OVCAR-5"}, "[13]": {"test_system": "PC-3"}, "[14]": {"test_system": "OVCAR-8"}, "[15]": {"test_system": "K562"}, "[16]": {"test_system": "UACC-257"}, "[17]": {"test_system": "HOP-62"}, "[18]": {"test_system": "SW-620"}, "[19]": {"test_system": "HT-29"}, "[20]": {"test_system": "SK-MEL-2"}}, "note": "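Briefly, cells in 96-well plates were exposed to five compound concentrations for 48 h, and endpoints were estimated by linear interpolation. GI50 = concentration required for 50% inhibition of growth.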 Active and inactive are the calls of the source. Rule as the data show it: active = GI50 up to about 1.1 µM and inactive = higher."}
{"smiles": "COc1cc2oc(=O)cc(C)c2cc1O", "values": [{"measurement": "GI50", "setting": "[1]", "result": "> 100 µM (inactive)"}, {"measurement": "GI50", "setting": "[2]", "result": "> 100 µM (inactive)"}, {"measurement": "GI50", "setting": "[3]", "result": "> 100 µM (inactive)"}, {"measurement": "GI50", "setting": "[4]", "result": "> 100 µM (inactive)"}, {"measurement": "GI50", "setting": "[5]", "result": "> 100 µM (inactive)"}, {"measurement": "GI50", "setting": "[6]", "result": "> 100 µM (inactive)"}, {"measurement": "GI50", "setting": "[7]", "result": "> 100 µM (inactive)"}, {"measurement": "GI50", "setting": "[8]", "result": "> 100 µM (inactive)"}, {"measurement": "GI50", "setting": "[9]", "result": "> 100 µM (inactive)"}, {"measurement": "GI50", "setting": "[10]", "result": "> 100 µM (inactive)"}, {"measurement": "GI50", "setting": "[11]", "result": "3 µM (inactive)"}, {"measurement": "GI50", "setting": "[12]", "result": "> 100 µM (inactive)"}, {"measurement": "GI50", "setting": "[13]", "result": "> 100 µM (inactive)"}, {"measurement": "GI50", "setting": "[14]", "result": "> 100 µM (inactive)"}, {"measurement": "GI50", "setting": "[15]", "result": "> 100 µM (inactive)"}, {"measurement": "GI50", "setting": "[16]", "result": "> 100 µM (inactive)"}, {"measurement": "GI50", "setting": "[17]", "result": "> 100 µM (inactive)"}, {"measurement": "GI50", "setting": "[18]", "result": "> 100 µM (inactive)"}, {"measurement": "GI50", "setting": "[19]", "result": "> 100 µM (inactive)"}, {"measurement": "GI50", "setting": "[20]", "result": "> 100 µM (inactive)"}]}
{"smiles": "N#Cc1c(-c2ccccc2)cc(Nc2ccc(F)cc2)n2c1nc1ccccc12", "values": [{"measurement": "GI50", "setting": "[1]", "result": "1.24 µM (inactive)"}, {"measurement": "GI50", "setting": "[2]", "result": "3.35 µM (inactive)"}, {"measurement": "GI50", "setting": "[3]", "result": "4.62 µM (inactive)"}, {"measurement": "GI50", "setting": "[4]", "result": "2.22 µM (inactive)"}, {"measurement": "GI50", "setting": "[5]", "result": "3.52 µM (inactive)"}, {"measurement": "GI50", "setting": "[6]", "result": "2.94 µM (inactive)"}, {"measurement": "GI50", "setting": "[7]", "result": "2.09 µM (inactive)"}, {"measurement": "GI50", "setting": "[8]", "result": "2.28 µM (inactive)"}, {"measurement": "GI50", "setting": "[9]", "result": "3.89 µM (inactive)"}, {"measurement": "GI50", "setting": "[10]", "result": "1.58 µM (inactive)"}, {"measurement": "GI50", "setting": "[11]", "result": "3.75 µM (inactive)"}, {"measurement": "GI50", "setting": "[12]", "result": "3.16 µM (inactive)"}, {"measurement": "GI50", "setting": "[13]", "result": "1.83 µM (inactive)"}, {"measurement": "GI50", "setting": "[14]", "result": "3.12 µM (inactive)"}, {"measurement": "GI50", "setting": "[15]", "result": "5.61 µM (inactive)"}, {"measurement": "GI50", "setting": "[16]", "result": "2.54 µM (inactive)"}, {"measurement": "GI50", "setting": "[17]", "result": "2.83 µM (inactive)"}, {"measurement": "GI50", "setting": "[18]", "result": "4.08 µM (inactive)"}, {"measurement": "GI50", "setting": "[19]", "result": "2.26 µM (inactive)"}, {"measurement": "GI50", "setting": "[20]", "result": "1.43 µM (inactive)"}]}
{"smiles": "O=Cc1[nH]c(=O)[nH]c(=O)c1C(=O)O", "values": [{"measurement": "GI50", "setting": "[1]", "result": "> 100 µM (inactive)"}, {"measurement": "GI50", "setting": "[2]", "result": "> 100 µM (inactive)"}, {"measurement": "GI50", "setting": "[3]", "result": "> 100 µM (inactive)"}, {"measurement": "GI50", "setting": "[4]", "result": "> 100 µM (inactive)"}, {"measurement": "GI50", "setting": "[5]", "result": "> 100 µM (inactive)"}, {"measurement": "GI50", "setting": "[6]", "result": "> 100 µM (inactive)"}, {"measurement": "GI50", "setting": "[7]", "result": "> 100 µM (inactive)"}, {"measurement": "GI50", "setting": "[8]", "result": "> 100 µM (inactive)"}, {"measurement": "GI50", "setting": "[9]", "result": "> 100 µM (inactive)"}, {"measurement": "GI50", "setting": "[10]", "result": "> 100 µM (inactive)"}, {"measurement": "GI50", "setting": "[11]", "result": "> 100 µM (inactive)"}, {"measurement": "GI50", "setting": "[12]", "result": "> 100 µM (inactive)"}, {"measurement": "GI50", "setting": "[13]", "result": "> 100 µM (inactive)"}, {"measurement": "GI50", "setting": "[14]", "result": "> 100 µM (inactive)"}, {"measurement": "GI50", "setting": "[15]", "result": "> 100 µM (inactive)"}, {"measurement": "GI50", "setting": "[16]", "result": "> 100 µM (inactive)"}, {"measurement": "GI50", "setting": "[17]", "result": "> 100 µM (inactive)"}, {"measurement": "GI50", "setting": "[18]", "result": "> 100 µM (inactive)"}, {"measurement": "GI50", "setting": "[19]", "result": "> 100 µM (inactive)"}, {"measurement": "GI50", "setting": "[20]", "result": "> 100 µM (inactive)"}]}
{"smiles": "CCC1(CC)C(=O)N(C(=O)c2ccc(C)cc2)N(C(=O)c2ccc(C)cc2)C1=O", "values": [{"measurement": "GI50", "setting": "[1]", "result": "> 75 µM (inactive)"}, {"measurement": "GI50", "setting": "[2]", "result": "> 75 µM (inactive)"}, {"measurement": "GI50", "setting": "[3]", "result": "> 75 µM (inactive)"}, {"measurement": "GI50", "setting": "[4]", "result": "72.9 µM (inactive)"}, {"measurement": "GI50", "setting": "[5]", "result": "50.9 µM (inactive)"}, {"measurement": "GI50", "setting": "[6]", "result": "> 75 µM (inactive)"}, {"measurement": "GI50", "setting": "[7]", "result": "48.6 µM (inactive)"}, {"measurement": "GI50", "setting": "[8]", "result": "> 75 µM (inactive)"}, {"measurement": "GI50", "setting": "[9]", "result": "26.2 µM (inactive)"}, {"measurement": "GI50", "setting": "[10]", "result": "> 75 µM (inactive)"}, {"measurement": "GI50", "setting": "[11]", "result": "> 75 µM (inactive)"}, {"measurement": "GI50", "setting": "[12]", "result": "> 75 µM (inactive)"}, {"measurement": "GI50", "setting": "[13]", "result": "59.6 µM (inactive)"}, {"measurement": "GI50", "setting": "[14]", "result": "> 75 µM (inactive)"}, {"measurement": "GI50", "setting": "[15]", "result": "40 µM (inactive)"}, {"measurement": "GI50", "setting": "[16]", "result": "> 75 µM (inactive)"}, {"measurement": "GI50", "setting": "[17]", "result": "65.6 µM (inactive)"}, {"measurement": "GI50", "setting": "[18]", "result": "29.8 µM (inactive)"}, {"measurement": "GI50", "setting": "[19]", "result": "> 75 µM (inactive)"}, {"measurement": "GI50", "setting": "[20]", "result": "> 75 µM (inactive)"}]}
{"smiles": "COc1ccc(-c2c3c(cc4cc5c(cc24)OCO5)C(=O)OC3)cc1OC", "values": [{"measurement": "GI50", "setting": "[1]", "result": "0.119 µM (active)"}, {"measurement": "GI50", "setting": "[2]", "result": "0.305 µM (active)"}, {"measurement": "GI50", "setting": "[3]", "result": "2.47 µM (inactive)"}, {"measurement": "GI50", "setting": "[4]", "result": "0.239 µM (active)"}, {"measurement": "GI50", "setting": "[5]", "result": "1.77 µM (inactive)"}, {"measurement": "GI50", "setting": "[6]", "result": "2.7 µM (inactive)"}, {"measurement": "GI50", "setting": "[7]", "result": "1.96 µM (inactive)"}, {"measurement": "GI50", "setting": "[8]", "result": "1.44 µM (inactive)"}, {"measurement": "GI50", "setting": "[9]", "result": "0.0299 µM (active)"}, {"measurement": "GI50", "setting": "[10]", "result": "0.383 µM (active)"}, {"measurement": "GI50", "setting": "[11]", "result": "2.99 µM (inactive)"}, {"measurement": "GI50", "setting": "[12]", "result": "9.55 µM (inactive)"}, {"measurement": "GI50", "setting": "[13]", "result": "4.01 µM (inactive)"}, {"measurement": "GI50", "setting": "[14]", "result": "0.24 µM (active)"}, {"measurement": "GI50", "setting": "[15]", "result": "0.69 µM (active)"}, {"measurement": "GI50", "setting": "[16]", "result": "2.07 µM (inactive)"}, {"measurement": "GI50", "setting": "[17]", "result": "0.313 µM (active)"}, {"measurement": "GI50", "setting": "[18]", "result": "2.19 µM (inactive)"}, {"measurement": "GI50", "setting": "[19]", "result": "0.215 µM (active)"}, {"measurement": "GI50", "setting": "[20]", "result": "1.83 µM (inactive)"}]}
{"smiles": "COc1ccc2nc3ccccc3c(NCCCCCCN(CCCl)CCCl)c2c1", "values": [{"measurement": "GI50", "setting": "[1]", "result": "0.304 µM (active)"}, {"measurement": "GI50", "setting": "[2]", "result": "0.0946 µM (active)"}, {"measurement": "GI50", "setting": "[3]", "result": "0.158 µM (active)"}, {"measurement": "GI50", "setting": "[4]", "result": "0.0767 µM (active)"}, {"measurement": "GI50", "setting": "[5]", "result": "0.151 µM (active)"}, {"measurement": "GI50", "setting": "[6]", "result": "0.0817 µM (active)"}, {"measurement": "GI50", "setting": "[7]", "result": "0.895 µM (active)"}, {"measurement": "GI50", "setting": "[8]", "result": "0.054 µM (active)"}, {"measurement": "GI50", "setting": "[9]", "result": "0.0115 µM (active)"}, {"measurement": "GI50", "setting": "[10]", "result": "0.014 µM (active)"}, {"measurement": "GI50", "setting": "[11]", "result": "0.226 µM (active)"}, {"measurement": "GI50", "setting": "[12]", "result": "0.45 µM (active)"}, {"measurement": "GI50", "setting": "[13]", "result": "0.0514 µM (active)"}, {"measurement": "GI50", "setting": "[14]", "result": "0.0627 µM (active)"}, {"measurement": "GI50", "setting": "[15]", "result": "0.019 µM (active)"}, {"measurement": "GI50", "setting": "[16]", "result": "1.6 µM (inactive)"}, {"measurement": "GI50", "setting": "[17]", "result": "0.212 µM (active)"}, {"measurement": "GI50", "setting": "[18]", "result": "0.0199 µM (active)"}, {"measurement": "GI50", "setting": "[19]", "result": "0.0248 µM (active)"}, {"measurement": "GI50", "setting": "[20]", "result": "0.297 µM (active)"}]}
